Results taken from the NIST ThermoML archive (doi:10.1016/j.jct.2017.03.002).

Columns and labels:
[1] = for surface tension liquid-gas: Capillary rise; for vapor or sublimation pressure: Closed cell (Static) method
[2] = xn = mol fraction of the nth substance listed; settings: Capillary rise

CCC [propane]
[1]
Settings | surface tension liquid-gas [mN/m]
270.51 K | 10.4
271.77 K | 10.3
280.13 K | 9.28
285.35 K | 8.37
287.35 K | 8.37
289.65 K | 8.09
291.75 K | 7.78
297.98 K | 7.12
300.92 K | 6.57
303.37 K | 6.48
314.06 K | 4.99

[1], Liquid
Settings | vapor or sublimation pressure [kPa]
270.51 K | 437.5
271.77 K | 456
280.13 K | 583.7
285.35 K | 680.6
287.35 K | 715.4
289.65 K | 762.1
291.75 K | 806.2
297.98 K | 948.2
300.92 K | 1021.2
303.37 K | 1083.1
314.06 K | 1398

CC [ethane]
[1]
Settings | surface tension liquid-gas [mN/m]
274.62 K | 2.95
279.17 K | 2.4
283.79 K | 1.85
291.25 K | 1.05
293.15 K | 0.95
294.16 K | 0.91
295.04 K | 0.81
297.18 K | 0.62
299.13 K | 0.43
301.25 K | 0.27
303.1 K | 0.13

[1]
Settings | Critical pressure [kPa] | Critical temperature [K] | vapor or sublimation pressure [kPa]
274.62 K, Liquid | – | – | 2472.5
279.17 K, Liquid | – | – | 2753.2
283.79 K, Liquid | – | – | 3060.9
291.25 K, Liquid | – | – | 3615.2
293.15 K, Liquid | – | – | 3764.3
294.16 K, Liquid | – | – | 3848
295.04 K, Liquid | – | – | 3919.9
297.18 K, Liquid | – | – | 4105.5
299.13 K, Liquid | – | – | 4277.5
301.25 K, Liquid | – | – | 4471.9
303.1 K, Liquid | – | – | 4650.3
304.95 K, Liquid | – | – | 4832.5
Liquid, Direct measurement | 4870 | – | –
Liquid, Visual observation in a stirred cell | – | 305.39 | –

CCC [propane] + C
[2], x2 = 0
Settings | surface tension liquid-gas [mN/m]
271.77 K | 10.3
285.35 K | 8.37
303.37 K | 6.48

C [methane] + CCC
[2]
Settings | surface tension liquid-gas [mN/m]
272.08 K, x1 = 0.139 | 7.06
272.1 K, x1 = 0.45 | 1.71
272.14 K, x1 = 0.0508 | 9.38
272.24 K, x1 = 0.105 | 7.99
272.25 K, x1 = 0.32 | 3.54
272.28 K, x1 = 0.493 | 1.36
272.29 K, x1 = 0.265 | 4.85
272.33 K, x1 = 0.391 | 2.63
272.34 K, x1 = 0.206 | 5.99
272.35 K, x1 = 0.554 | 0.51
285.35 K, x1 = 0.0217 | 7.89
285.37 K, x1 = 0.0609 | 7.13
285.39 K, x1 = 0.398 | 1.57
285.5 K, x1 = 0.323 | 2.35
285.5 K, x1 = 0.525 | 0.34
285.55 K, x1 = 0.279 | 3.1
285.55 K, x1 = 0.474 | 0.76
285.65 K, x1 = 0.165 | 5.02
285.76 K, x1 = 0.122 | 6.1
303.15 K, x1 = 0.117 | 4.12
303.35 K, x1 = 0.318 | 1.27
303.37 K, x1 = 0.389 | 0.62
303.37 K, x1 = 0.433 | 0.27
303.45 K, x1 = 0.201 | 2.99
